Test results as given in PubChem BioAssay AID2060487 (Molecular Pharmacology Branch, DTP, NCI, 2025).

Test system: 997537-175-T-J1-PDC complex spheroid viability
Assay: Anticancer human tumor 997537-175-T-J1-PDC patient-derived colon adenocarcinoma cell line growth inhibition [GQUAD]
Details: for IC50: curve of first compound; for viability, T/C: stronger effect = lower value
Method in brief: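 Tumor cells were grown as complex spheroids with HUVEC endothelial cells and mesenchymal stem cells as stroma. G-quadruplex stabilizers were combined with targeted agents over half-log dilutions from near the clinical Cmax, or from 10 microM.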

[1] = second compound 0.0316 µM, first compound 0.0316 µM
[2] = second compound 0.0316 µM, first compound 0.1 µM
[3] = second compound 0.0316 µM, first compound 0.316 µM
[4] = second compound 0.0316 µM, first compound 1 µM
[5] = second compound 0.0316 µM, first compound 3.16 µM
[6] = second compound 0.0316 µM, first compound 10 µM
[7] = second compound 0.1 µM, first compound 0.0316 µM
[8] = second compound 0.1 µM, first compound 0.1 µM
[9] = second compound 0.1 µM, first compound 0.316 µM
[10] = second compound 0.1 µM, first compound 1 µM
[11] = second compound 0.1 µM, first compound 3.16 µM
[12] = second compound 0.1 µM, first compound 10 µM
[13] = second compound 0.316 µM, first compound 0.0316 µM
[14] = second compound 0.316 µM, first compound 0.1 µM
[15] = second compound 0.316 µM, first compound 0.316 µM
[16] = second compound 0.316 µM, first compound 1 µM
[17] = second compound 0.316 µM, first compound 3.16 µM
[18] = second compound 0.316 µM, first compound 10 µM
[19] = second compound 1 µM, first compound 0.0316 µM
[20] = second compound 1 µM, first compound 0.1 µM
[21] = second compound 1 µM, first compound 0.316 µM
[22] = second compound 1 µM, first compound 1 µM
[23] = second compound 1 µM, first compound 3.16 µM
[24] = second compound 1 µM, first compound 10 µM
[25] = second compound 3.16 µM, first compound 0.0316 µM
[26] = second compound 3.16 µM, first compound 0.1 µM
[27] = second compound 3.16 µM, first compound 0.316 µM
[28] = second compound 3.16 µM, first compound 1 µM
[29] = second compound 3.16 µM, first compound 3.16 µM
[30] = second compound 3.16 µM, first compound 10 µM
[31] = second compound 10 µM, first compound 0.0316 µM
[32] = second compound 10 µM, first compound 0.1 µM
[33] = second compound 10 µM, first compound 0.316 µM
[34] = second compound 10 µM, first compound 1 µM
[35] = second compound 10 µM, first compound 3.16 µM
[36] = second compound 10 µM, first compound 10 µM
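Also: spheroids exposed to the agents for 7 days.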
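For viability, T/C in this document: 100% = DMSO vehicle control viability.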

Question: What does the source list for `CC1COCCN1c1cc(-c2ccnn2C)c2ccnc(-c3ccn[nH]3)c2n1` (stereo unspecified) + Cc1cnc(CNC(=O)c2c(=O)c3ccc(N4CCCN(C)CC4)nc3n3c2sc2ccccc23)cn1?
Answer: IC50 (second compound 0.0316 µM): 147 nM; IC50 (second compound 0.1 µM): 157 nM; IC50 (second compound 0.316 µM): < 31.6 nM; IC50 (second compound 1 µM): > 10000 nM; IC50 (second compound 3.16 µM): > 10000 nM; IC50 (second compound 10 µM): < 31.6 nM; viability, T/C [1]: 80.7%; viability, T/C [2]: 54%; viability, T/C [3]: 37.4%; viability, T/C [4]: 33.7%; viability, T/C [5]: 43.5%; viability, T/C [6]: 53.1%; viability, T/C [7]: 65.9%; viability, T/C [8]: 53.8%; viability, T/C [9]: 48.4%; viability, T/C [10]: 29.8%; viability, T/C [11]: 51.7%; viability, T/C [12]: 55.2%; viability, T/C [13]: 52.7%; viability, T/C [14]: 39%; viability, T/C [15]: 34.8%; viability, T/C [16]: 37.6%; viability, T/C [17]: 48.5%; viability, T/C [18]: 45%; viability, T/C [19]: 55.3%; viability, T/C [20]: 58.5%; viability, T/C [21]: 67.5%; viability, T/C [22]: 57.5%; viability, T/C [23]: 58.2%; viability, T/C [24]: 51%; viability, T/C [25]: 63.1%; viability, T/C [26]: 63.7%; viability, T/C [27]: 48.5%; viability, T/C [28]: 67.5%; viability, T/C [29]: 57.8%; viability, T/C [30]: 48%; viability, T/C [31]: 43.1%; viability, T/C [32]: 52%; viability, T/C [33]: 66.7%; viability, T/C [34]: 54.9%; viability, T/C [35]: 39.8%; viability, T/C [36]: 63.3%

Question: Which results are given for `CC1COCCN1c1cc(C2(O)CC3CCC(C2)O3)c2cnn(-c3ccn[nH]3)c2n1` (stereo unspecified) + CN(C)c1ccc(Nc2c3ccc(NC(=O)CCN4CCCC4)cc3nc3cc(NC(=O)CCN4CCCC4)ccc23)cc1?
Answer: IC50 (second compound 0.0316 µM): 786 nM; IC50 (second compound 0.1 µM): 461 nM; IC50 (second compound 0.316 µM): 1690 nM; IC50 (second compound 1 µM): 211 nM; IC50 (second compound 3.16 µM): > 10000 nM; IC50 (second compound 10 µM): > 10000 nM; viability, T/C [1]: 78.9%; viability, T/C [2]: 74.6%; viability, T/C [3]: 57.6%; viability, T/C [4]: 46.9%; viability, T/C [5]: 44.2%; viability, T/C [6]: 51.1%; viability, T/C [7]: 105%; viability, T/C [8]: 79%; viability, T/C [9]: 55.3%; viability, T/C [10]: 37.1%; viability, T/C [11]: 43.8%; viability, T/C [12]: 48.5%; viability, T/C [13]: 86.9%; viability, T/C [14]: 60.2%; viability, T/C [15]: 58.5%; viability, T/C [16]: 42.2%; viability, T/C [17]: 48.7%; viability, T/C [18]: 54.2%; viability, T/C [19]: 77.7%; viability, T/C [20]: 52.8%; viability, T/C [21]: 44.8%; viability, T/C [22]: 40.7%; viability, T/C [23]: 49%; viability, T/C [24]: 60%; viability, T/C [25]: 55.8%; viability, T/C [26]: 65.7%; viability, T/C [27]: 70.2%; viability, T/C [28]: 45.6%; viability, T/C [29]: 47.9%; viability, T/C [30]: 66.5%; viability, T/C [31]: 82.7%; viability, T/C [32]: 61.9%; viability, T/C [33]: 69.4%; viability, T/C [34]: 47%; viability, T/C [35]: 41.8%; viability, T/C [36]: 66.5%

Question: Which IC50 (second compound 0.0316 µM) does the source give for `COc1ncnc(C2CC2)c1-c1ncc2cnn(Cc3ccc(-c4nc(C(F)(F)F)cn4C(C)C)cc3)c2n1` + Cc1cnc(CNC(=O)c2c(=O)c3ccc(N4CCCN(C)CC4)nc3n3c2sc2ccccc23)cn1 here?
Answer: Its IC50 is > 10000 nM.

Question: What about the IC50 (second compound 0.1 µM) of the same compound?
Answer: Its IC50 is > 10000 nM.

Question: And the IC50 (second compound 0.316 µM)?
Answer: Its IC50 is > 10000 nM.

Question: And the IC50 (second compound 1 µM)?
Answer: The IC50 was > 10000 nM.

Question: What about the IC50 (second compound 3.16 µM) of the same compound?
Answer: Its IC50 is > 10000 nM.

Question: And the IC50 (second compound 10 µM)?
Answer: The IC50 was > 10000 nM.

Question: And the viability, T/C [1]?
Answer: The viability, T/C was 118%.

Question: And the viability, T/C [2]?
Answer: The viability, T/C was 78.4%.

Question: What about the viability, T/C [3] of the same compound?
Answer: Its viability, T/C is 102%.

Question: And the viability, T/C [4]?
Answer: Its viability, T/C is 66.6%.

Question: And the viability, T/C [5]?
Answer: The viability, T/C was 55.3%.

Question: What about the viability, T/C [6] of the same compound?
Answer: The viability, T/C was 96.1%.

Question: What about the viability, T/C [7] of the same compound?
Answer: Its viability, T/C is 95.3%.

Question: And the viability, T/C [8]?
Answer: Its viability, T/C is 69%.

Question: What about the viability, T/C [9] of the same compound?
Answer: The viability, T/C was 88.5%.

Question: What about the viability, T/C [10] of the same compound?
Answer: The viability, T/C was 92.5%.

Question: What about the viability, T/C [11] of the same compound?
Answer: Its viability, T/C is 85%.

Question: And the viability, T/C [12]?
Answer: Its viability, T/C is 94.5%.

Question: What about the viability, T/C [13] of the same compound?
Answer: Its viability, T/C is 89.1%.

Question: What about the viability, T/C [14] of the same compound?
Answer: The viability, T/C was 86.2%.

Question: What about the viability, T/C [15] of the same compound?
Answer: Its viability, T/C is 89.5%.

Question: What about the viability, T/C [16] of the same compound?
Answer: The viability, T/C was 88.5%.

Question: And the viability, T/C [17]?
Answer: Its viability, T/C is 91.3%.

Question: What about the viability, T/C [18] of the same compound?
Answer: Its viability, T/C is 92.7%.

Question: And the viability, T/C [19]?
Answer: The viability, T/C was 73.8%.

Question: And the viability, T/C [20]?
Answer: Its viability, T/C is 85.1%.

Question: And the viability, T/C [21]?
Answer: Its viability, T/C is 100%.

Question: And the viability, T/C [22]?
Answer: The viability, T/C was 101%.

Question: And the viability, T/C [23]?
Answer: Its viability, T/C is 121%.

Question: What about the viability, T/C [24] of the same compound?
Answer: The viability, T/C was 97.5%.

Question: And the viability, T/C [25]?
Answer: Its viability, T/C is 56%.

Question: What about the viability, T/C [26] of the same compound?
Answer: Its viability, T/C is 107%.

Question: And the viability, T/C [27]?
Answer: The viability, T/C was 104%.

Question: And the viability, T/C [28]?
Answer: The viability, T/C was 84.7%.

Question: What about the viability, T/C [29] of the same compound?
Answer: The viability, T/C was 106%.

Question: What about the viability, T/C [30] of the same compound?
Answer: The viability, T/C was 97.4%.

Question: And the viability, T/C [31]?
Answer: The viability, T/C was 75.3%.

Question: What about the viability, T/C [32] of the same compound?
Answer: Its viability, T/C is 109%.

Question: And the viability, T/C [33]?
Answer: The viability, T/C was 101%.

Question: And the viability, T/C [34]?
Answer: Its viability, T/C is 92%.

Question: What about the viability, T/C [35] of the same compound?
Answer: Its viability, T/C is 102%.

Question: And the viability, T/C [36]?
Answer: Its viability, T/C is 116%.
